Source: patent US20040110802A1, “Antibacterial benzoic acid derivatives” (priority 2002, published 2004)
In brackets after ≈: the same amount, converted by molar mass. Like-named read-outs stand apart in the source and are kept apart here.

Test system: SAUR 9218
Experiment: MIC Test Method, standard agar dilution
Assay type: cell-based
Conditions: read-out: SAUR 9218 MIC
Method: The in vitro MiCs of test compounds were determined by a standard agar dilution method. A stock drug solution of each analog was prepared in the preferred solvent, usually DMSO:H2O (1:3). Serial 2-fold dilutions of each sample are made using 1.0 ml aliquots of sterile distil]ed water. To each 1.0 ml aliquot of drug was added 9 ml of molten Mueller Hinton agar medium. The drug-supplemented agar was mixed, poured into 15×100 mm petri dishes, and allowed to solidify and dry prior to inoculation.
Vials of each of the test organisms are maintained frozen in the vapor phase of a liquid nitrogen freezer. Test cultures are grown overnight at 35° C. on the medium appropriate for the organism. Colonies are harvested with a sterile swab, and cell suspensions are prepared in Trypticase Soy broth (TSB) to equal the turbidity of a 0.5 McFamland standard. A 1:20 dilution of each suspension was made in TSB. The plates containing the drug supplemented agar are inoculated with a 0.001 ml drop of the cell suspension using a Steers replicator, yielding approximately 10^4 to 10^5 cells per spot. The plates are incubated overnight at 35° C.
Following incubation the Minimum Inhibitory Concentration (MIC μg/ml), the lowest concentration of drug that inhibits visible growth of the organism, was read and recorded.

[1] = agar dilution, Mueller Hinton agar, incubated overnight at 35° C., lowest concentration that inhibits visible growth

Row | MIC [1] | SMILES | MIC
1 | 32 µg/mL (≈ 80 µM) | Cn1nc(C(=O)Nc2ccc(Br)cc2C(=O)O)cc1-c1ccccc1 | 
2 | 2 µg/mL (≈ 4.14 µM) | Cn1c(C(=O)Nc2ccc(C#N)cc2C(=O)O)cc2cccc(OCC(O)COCC(O)CO)c21 (stereo not shown) | 
3 | 0.5 µg/mL (≈ 1.31 µM) | N#Cc1ccc(NC(=O)c2ccc(SC3CCCCC3)nc2)c(C(=O)O)c1 | 
4 | 0.5 µg/mL (≈ 1.07 µM) | COc1ccccc1CC(=O)Nc1cccc2cc(C(=O)Nc3ccc(C#N)cc3C(=O)O)[nH]c12 | 
5 | 1 µg/mL (≈ 2.53 µM) | O=C(O)c1cc(Br)ccc1NC(=O)c1noc2cc(Cl)ccc12 | 
6 | 1 µg/mL (≈ 2.3 µM) | O=C(Nc1ccc(Br)cc1C(=O)O)c1ccc(SC2CCCCC2)nc1 | 
7 | 0.125 µg/mL (≈ 0.286 µM) | CCCCCCSc1ccc(C(=O)Nc2ccc(Br)cc2C(=O)O)cn1 | 
8 | 4 µg/mL (≈ 7.55 µM) | Cc1sc(C(=O)Nc2ccc(Br)cc2C(=O)O)cc1S(=O)(=O)Nc1ccc(Cl)cc1 | 
9 | 32 µg/mL (≈ 55.3 µM) | Cc1sc(C(=O)Nc2ccc(C#N)cc2C(=O)O)cc1S(=O)(=O)N1CCN(c2cccc(C(F)(F)F)c2)CC1 | 
10 | 0.125 µg/mL (≈ 0.358 µM) | N#Cc1ccc(NC(=O)c2cc(-c3ccccc3O)on2)c(C(=O)O)c1 | 
11 | 0.125 µg/mL (≈ 0.281 µM) | N#Cc1ccc(NC(=O)c2cc3cccc(S(=O)(=O)c4ccccc4)c3[nH]2)c(C(=O)O)c1 | 
12 | 128 µg/mL (≈ 253 µM) | O=C(Nc1ccc(Br)cc1C(=O)O)c1cnc(CC(O)[C@H]2COC3(CCCCC3)O2)cn1 (stereo partly shown) | 
13 | 0.125 µg/mL (≈ 0.31 µM) | N#Cc1ccc(NC(=O)c2cc(-c3ccccc3OC3CCC3)on2)c(C(=O)O)c1 | 
14 | 0.5 µg/mL (≈ 1.04 µM) | Cn1cnc(S(=O)(=O)Nc2cccc3cc(C(=O)Nc4ccc(C#N)cc4C(=O)O)n(C)c23)c1 | 
15 | > 128 µg/mL | COCOCC(OCOC)C(Cc1cnc(C(=O)Nc2ccc(Br)cc2C(=O)O)cn1)OC (stereo not shown) | 
16 | 64 µg/mL (≈ 139 µM) | CCCCN(CC#N)S(=O)(=O)c1cc(C(=O)Nc2ccc(C#N)cc2C(=O)O)sc1C | 
17 | 0.25 µg/mL (≈ 0.559 µM) | Cn1c(C(=O)Nc2ccc(C#N)cc2C(=O)O)cc2cccc(O/C=C3/COC(C)(C)O3)c21 | 
18 |  | Cn1c(C(=O)Nc2ccc(C#N)cc2C(=O)O)cc2cccc(NC(=O)CF)c21 | 1 µg/mL (≈ 2.54 µM)
19 | 64 µg/mL (≈ 122 µM) | CC(=O)Oc1ccc(N2C(=O)c3ccc(C(=O)Nc4ccc(Br)cc4C(=O)O)cc3C2=O)cc1 | 
20 | 0.25 µg/mL (≈ 0.593 µM) | COCC(C)Oc1ccccc1-c1cc(C(=O)Nc2ccc(C#N)cc2C(=O)O)no1 (stereo not shown) | 
21 | 0.25 µg/mL (≈ 0.706 µM) | COc1cccc(-c2cc(C(=O)Nc3ccc(O)cc3C(=O)O)no2)c1 | 
22 | 0.25 µg/mL (≈ 0.571 µM) | N#Cc1ccc(NC(=O)c2cc3cccc4c3n2CCC4Oc2ccccc2)c(C(=O)O)c1 (stereo not shown) | 
23 | > 128 µg/mL | O=C(Nc1ccc(Br)cc1C(=O)O)c1ccoc1 | 
24 | 0.125 µg/mL (≈ 0.276 µM) | Cc1cccc(CC(=O)Nc2cccc3cc(C(=O)Nc4ccc(C#N)cc4C(=O)O)[nH]c23)c1 | 

Row | MIC [1] | SMILES | MIC
25 | 0.125 µg/mL (≈ 0.259 µM) | Cn1c(C(=O)Nc2ccc(C#N)cc2C(=O)O)cc2cccc(OCC3COc4ccccc4O3)c21 (stereo not shown) | 
26 | 128 µg/mL (≈ 244 µM) | Nc1ccc(CCNS(=O)(=O)c2cc(C(=O)Nc3ccc(Br)cc3C(=O)O)cs2)cc1 | 
27 | 0.5 µg/mL (≈ 1.09 µM) | O=C(COc1ccccc1-c1cc(C(=O)Nc2ccc(O)cc2C(=O)O)no1)c1ccccc1 | 
28 | 128 µg/mL (≈ 246 µM) | COC(Cc1cnc(C(=O)Nc2ccc(Br)cc2C(=O)O)cn1)[C@H]1COC2(CCCCC2)O1 (stereo partly shown) | 
29 | 16 µg/mL (≈ 38.8 µM) | N#Cc1ccc(NC(=O)c2ccc(-c3ccccc3C(F)(F)F)nn2)c(C(=O)O)c1 | 
30 | > 128 µg/mL | COc1ccc(C(=O)Nc2ccc(C#N)cc2C(=O)O)c(OC)n1 | 
31 | 128 µg/mL (≈ 293 µM) | Cn1nc(-c2c(F)cccc2F)cc1C(=O)Nc1ccc(Br)cc1C(=O)O | 
32 | 0.5 µg/mL (≈ 0.981 µM) | Cc1nc(C)c(S(=O)(=O)Nc2cccc3cc(C(=O)Nc4ccc(C#N)cc4C(=O)O)n(C)c23)s1 | 
33 | 0.5 µg/mL (≈ 1.22 µM) | Cc1noc(C)c1CSc1ccc(C(=O)Nc2ccc(C#N)cc2C(=O)O)cn1 | 
34 | 8 µg/mL (≈ 10.8 µM) | Cn1c(C(=O)Nc2ccc(C#N)cc2C(=O)O)cc2c(-c3ccccc3C(F)(F)F)cc(-c3ccccc3C(F)(F)F)c(NC(=O)Cc3ccccc3)c21 | 
35 | 0.5 µg/mL (≈ 1.14 µM) | CC(=O)Nc1ccccc1-c1ccc2onc(C(=O)Nc3ccc(C#N)cc3C(=O)O)c2c1 | 
36 | 0.5 µg/mL (≈ 1.13 µM) | N#Cc1ccc(NC(=O)c2cc3cccc(NC(=O)c4cccc(F)c4)c3[nH]2)c(C(=O)O)c1 | 
37 | 0.25 µg/mL (≈ 0.701 µM) | CCC(C)Sc1cnc(C(=O)Nc2ccc(C#N)cc2C(=O)O)cn1 (stereo not shown) | 
38 | 0.06 µg/mL (≈ 0.133 µM) | CCCCCCCSc1ccc(C(=O)Nc2ccc(Br)cc2C(=O)O)nn1 | 
39 | > 128 µg/mL | N#Cc1ccc(NC(=O)c2cncc(-c3ccccn3)c2)c(C(=O)O)c1 | 
40 | 2 µg/mL (≈ 5 µM) | CS(=O)(=O)Nc1ccc2c(C(=O)Nc3ccc(C#N)cc3C(=O)O)noc2c1 | 
41 | > 128 µg/mL | Cc1ccsc1C(=O)Nc1ccc(Br)cc1C(=O)O | 
42 | 0.25 µg/mL (≈ 0.635 µM) | COc1ccc(CNc2cnc(C(=O)Nc3ccc(N)cc3C(=O)O)cn2)cc1 | 
43 | 0.125 µg/mL (≈ 0.262 µM) | Cn1c(C(=O)Nc2cccc3cc(C(=O)Nc4ccc(C#N)cc4C(=O)O)[nH]c23)cc2ccccc21 | 
44 | 1 µg/mL (≈ 2.84 µM) | Cc1noc(C)c1-c1cc(C(=O)Nc2ccc(C#N)cc2C(=O)O)no1 | 
45 | 8 µg/mL (≈ 14.5 µM) | Cc1sc(C(=O)Nc2ccc(Br)cc2C(=O)O)cc1S(=O)(=O)Nc1ccc2c(c1)OCCO2 | 
46 | 16 µg/mL (≈ 54.9 µM) | C#Cc1cncc(C(=O)Nc2ccc(C#N)cc2C(=O)O)c1 | 
47 | 2 µg/mL (≈ 4.97 µM) | CC1(C(=O)Nc2cccc3cc(C(=O)Nc4ccc(C#N)cc4C(=O)O)[nH]c23)CC1 | 
48 | 32 µg/mL (≈ 57.6 µM) | CN(CC(O)C(O)C(O)C(O)CO)C(=O)Nc1cccc2cc(C(=O)Nc3ccc(C#N)cc3C(=O)O)n(C)c12 (stereo not shown) | 

Row | MIC [1] | SMILES | MIC
49 | 1 µg/mL (≈ 2.61 µM) | N#Cc1ccc(NC(=O)c2ncc(-c3cccc(Cl)c3)s2)c(C(=O)O)c1 | 
50 | 4 µg/mL (≈ 10.1 µM) | N#Cc1ccc(NC(=O)c2csc(SCc3ccccc3)n2)c(C(=O)O)c1 | 
51 | 0.125 µg/mL (≈ 0.266 µM) | Cn1c(C(=O)Nc2ccc(C#N)cc2C(=O)O)cc2cccc(OCCCOc3ccccc3)c21 | 
52 | 4 µg/mL (≈ 9.7 µM) | Cn1c(C(=O)Nc2ccc(C#N)cc2C(=O)O)cc2ccc(NS(C)(=O)=O)cc21 | 
53 | 4 µg/mL (≈ 12.2 µM) | Cn1c(C(=O)Nc2ccc(Cl)cc2C(=O)O)cc2ccccc21 | 
54 | 0.125 µg/mL (≈ 0.285 µM) | N#Cc1ccc(NC(=O)c2cc3cccc(NC(=O)Cc4ccccc4)c3[nH]2)c(C(=O)O)c1 | 
55 | 0.125 µg/mL (≈ 0.331 µM) | CCOc1ccccc1-c1cc(C(=O)Nc2ccc(C#N)cc2C(=O)O)no1 | 
56 | 1 µg/mL (≈ 2.2 µM) | O=C(Nc1ccc(Br)cc1C(=O)O)c1ncc(-c2ccccc2C(F)(F)F)o1 | 
57 | 0.03 µg/mL (≈ 0.0581 µM) | O=C(O)c1cc(Br)ccc1NC(=O)c1noc2ccc(S(=O)(=O)Nc3ccccc3)cc12 | 
58 | 32 µg/mL (≈ 64.6 µM) | Cc1c(C(=O)Cc2cncc(C(=O)Nc3ccc(C#N)cc3C(=O)O)c2)c(=O)n(-c2ccccc2)n1C | 
59 | 0.5 µg/mL (≈ 0.813 µM) | Cn1c(C(=O)Nc2ccc(C#N)cc2C(=O)O)cc2ccc(N(S(=O)(=O)c3ccccc3)S(=O)(=O)c3ccccc3)cc21 | 
60 | 8 µg/mL (≈ 15.7 µM) | Cc1sc(C(=O)Nc2ccc(C#N)cc2C(=O)O)cc1S(=O)(=O)N1CCN(c2ccccc2)CC1 | 
61 | 2 µg/mL (≈ 6.53 µM) | N#Cc1ccc(NC(=O)c2cc3ccccc3o2)c(C(=O)O)c1 | 
62 | 0.125 µg/mL (≈ 0.266 µM) | Cn1c(C(=O)Nc2ccc(C#N)cc2C(=O)O)cc2cccc(NC(=O)Cc3ccc(F)cc3)c21 | 
63 | 32 µg/mL (≈ 58.5 µM) | Cc1cc(NS(=O)(=O)c2ccc(-c3cc(C(=O)Nc4ccc(Br)cc4C(=O)O)no3)cc2)no1 | 
64 | 0.125 µg/mL (≈ 0.344 µM) | COc1ccccc1-c1cc(C(=O)Nc2ccc(C#N)cc2C(=O)O)no1 | 
65 | 0.25 µg/mL (≈ 0.611 µM) | CSCCOc1cccc2cc(C(=O)Nc3ccc(C#N)cc3C(=O)O)n(C)c12 | 
66 | 0.125 µg/mL (≈ 0.263 µM) | N#Cc1ccc(NC(=O)c2cc3cccc(NS(=O)(=O)Cc4ccccc4)c3[nH]2)c(C(=O)O)c1 | 
67 | 0.25 µg/mL | Cl.N#Cc1ccc(NC(=O)c2ccc(SCc3ccccc3)nc2)c(C(=O)O)c1 | 
68 | 8 µg/mL (≈ 22.2 µM) | O=C(Nc1ccc(Br)cc1C(=O)O)c1cc2ccccc2o1 | 
69 | 0.5 µg/mL (≈ 1.23 µM) | O=C(Nc1ccc(Br)cc1C(=O)O)c1cc(-c2ccccc2F)on1 | 
70 | 0.5 µg/mL (≈ 1.12 µM) | N#Cc1ccc(NC(=O)c2noc3c2CN(C(=O)OCc2ccccc2)CC3)c(C(=O)O)c1 | 
